For data set [1] the following is noted: oral dosing; cited from earlier work.
A short description of data set [2]: Plasma stability, dog plasma (HPLC-MS). It is filed as in vitro ADME. The conditions noted are these: 2 μM, 37° C. The procedure: Plasma stability determination of the test compounds in rat, dog, cynomolgus monkey and human plasma is performed using HPLC-MS. For rat, incubations are carried out in 96-well polypropylene plates in 5 aliquots of 70 μL each (one for each time point). […] Five time points are analyzed (0, 15, 120, 480 and 1440 min). For dog, monkey and human, test compounds (2 μM, final solvent concentration 1%) were also incubated at 37° C. and analyzed at five time points (0, 10, 30, 60 and 120 min). All incubations are performed in duplicates. The samples are analyzed by HPLC-MS. The percentage of parent compound remaining after incubation in plasma is determined.

Data set [3] can be described thus: Plasma stability, rat plasma (HPLC-MS). The format is in vitro ADME. The following applies: 10 μM, 37° C. The method in brief: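 Percentage of parent remaining was followed by HPLC-MS in duplicate, over 0–1440 min for rat and 0–120 min for dog, monkey and human plasma (2 μM, 1% solvent, 37 °C).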
Data set [4] can be described thus: Plasma stability, cynomolgus monkey plasma (HPLC-MS). The format is in vitro ADME. The following applies: 2 μM, 37° C., 0 min. The procedure:
(§1) Plasma stability determination of the test compounds in rat, dog, cynomolgus monkey and human plasma is performed using HPLC-MS. For rat, incubations are carried out in 96-well polypropylene plates in 5 aliquots of 70 μL each (one for each time point). […] Five time points are analyzed (0, 15, 120, 480 and 1440 min). […] All incubations are performed in duplicates. The samples are analyzed by HPLC-MS. The percentage of parent compound remaining after incubation in plasma is determined.

The nature of data set [5]: Liver S9 fraction stability, human. It is filed as in vitro ADME. The conditions noted are these: 2 μM, 1.0 mg/ml S9 protein, 37° C. How it is done: (§2) Liver S9 fraction stability determination of the test compounds in dog, cynomolgus monkey and human is performed using HPLC-MS. Test compound (2 μM, 0.1% DMSO, 1% Methanol final concentration) was assessed for stability in a 50 μl phosphate buffer containing 1.0 mg/ml S9 protein from each of the three species and 5 mM D-saccharic acid-1, 4-lactone. Samples were incubated at 37° C. for 60 minutes and the % compound remaining was assessed.

The nature of data set [6]: Liver S9 fraction stability, cynomolgus monkey. It is filed as in vitro ADME. The following applies: 2 μM, 1.0 mg/ml S9 protein, 37° C. How it is done:
as §2

A short description of data set [7]: Plasma stability, human plasma (HPLC-MS). The following applies: 2 μM, 37° C. The format is in vitro ADME. How it is done: as §1
A short description of data set [8]: Clinical observations for dogs in pharmacokinetic studies. It is filed as in vivo, Beagle dogs. The conditions noted are these: right leg test article. How it is done: Weight monitoring was done every week.
The dose formulation (concentration—400 mg base equivalents/ml in sesame oil+1% benzyl alcohol, unless otherwise specified) was administered via deep intramuscularly (unless otherwise specified). The injection vehicle was also dosed via deep intramuscular route (unless otherwise specified) on contralateral site of each animal at study initiation. The animals were sedated with Propofol at 6 mg/kg via IV administration. Following sedation hair was carefully removed from around the injection site and the area gently cleaned. Care will be taken to avoid irritating skin during shaving and cleaning the injection site. Then dogs will be dosed with deep IM administration. At least 2.5 cm depth from the surface into the central aspect of the quadriceps or biceps femoris muscle, by angling the needle toward the femur. If the needle hits the femur, simply draws back slightly and then inject. The dose volume will be determined by the animals' body weight collected on the morning of dosing day. For repeated administration, the injection sites may be rotated to minimize tissue injury.

Data set [9] in a line: Equilibrium solubility in water (Table 10). The following applies: for solubility thermodynamic: water, 40 °C, thermodynamic from solid.
The nature of data set [10]: Solubility determination in oil (cottonseed oil, sesame oil), HPLC. The conditions noted are these: Heating Temp. 60 °C, Obs. Temp. 25 °C. The procedure: A known amount of test substance (˜40 mg) was weighed into the vial, 100 μL of oil was added and heated to 60° C. and then system was slurried to reach equilibrium. […] Then the clear solution was placed at room temperature (25° C.) for 24 h to confirm whether there was solid precipitation. Extra oil was added into the vial once compound precipitated out and then the system was re-equilibrated at 1000 rpm at room temperature (25° C.). Final concentration was determined by HPLC method as described below in Table 6a and 6b.

Data set [11] can be described thus: Rat pharmacokinetic studies, intramuscular administration. It is filed as in vivo, male Sprague Dawley Rats. The conditions noted are these: rat IM 0.80 mg/kg, saline. How it is done: The purpose of this study is to determine the pharmacokinetics of test compounds in plasma, following intramuscular administration to male Sprague Dawley Rats (n=3, unless otherwise specified).
The dose formulation of 400 mg base equivalents/ml in sesame oil+1% benzyl alcohol (unless otherwise specified) was administered by intramuscular injection. The dose volume was determined by the animals' body weight determined on the morning of dosing day.
Each collected blood sample was centrifuged for 4 minutes at 4° C. and 10000 rpm for plasma collection. Plasma was collected and transferred into a pre-labeled PP tube in dry ice at each time point and precipitated immediately using ACN at a ratio of 1:4 (plasma:ACN). Centrifuged again (10 minutes, 12000 rpm) and obtain the supernatant.
LC-MS/MS methods for the quantitative determination of test compound in biological matrix were developed. […] The sample analysis was performed concurrently with a set of calibration standards and two sets of QC samples using the LC-MS/MS method.
Plasma concentration versus time data was analyzed by non-compartmental approaches using the Phoenix WinNonlin 6.3 software program. Cmax, Tmax, T1/2, AUC(0-t), AUC(0-inf), MRT(0-t), MRT(0-inf) and graphs of plasma concentration versus time profile were prepared.

In brackets after ≈: the same amount, converted by molar mass. Where only a bound is given, the exact number is not on record here.

The source of these data is US10544154B2, “Opioid receptor antagonist prodrugs” (Nirsum Laboratories, Inc., priority 2017, dated 2020).

As a reminder, the solubility (thermodynamic) is solubility found after equilibrating the solid with the medium.

Consider `Oc1ccc2c3c1O[C@H]1[C@H](O)CC[C@@]4(O)[C@@H](C2)N(CC2CC2)CC[C@]314` [6-β-naltrexol], for which the mean elimination half-life result in data set [1] is on record as “thirteen”.
In the case of `C=C1CC[C@@]2(O)C3Cc4ccc(OC(=O)OCCCCCCCCCCCC)c5c4[C@@]2(CCN3CC2CC2)[C@H]1O5` [Compound 6, (4aS,7aS,12bS)-3-(cyclopropylmethyl)-4a-hydroxy-7-methylene-2,3,4,4a,5,6,7,7a-octahydro-1H-4,12-methanobenzofuro[3,2-e]isoquinolin-9-yl dodecyl carbonate], in data set [2], the “% remaining at time point in minutes, 0 min” value was 100%. In [3], the “% remaining at time point in minutes, 0 min” value is 100%; the “% remaining at time point in minutes, 120 min” value turned out to be 7.6%; the “% remaining at time point in minutes, 480 min” value (“% remaining … 480 min” for short) amounted to 4%; the “% remaining at time point in minutes, 1440 min” value (from here on “% remaining … 1440 min”) stood at 1.6%. Further, the “% remaining at time point in minutes, 0 min” value in data set [4] is recorded as 100%. The “Liver S9 Fraction Stability, % remaining at 60 minutes, Human” value in data set [5] came to 5.3%. In addition, in data set [6], the “Liver S9 Fraction Stability, % remaining at 60 minutes, Monkey” value is 0%. The “% remaining at time point in minutes, 0 min” value in data set [7] is given as 100%.
For the compound `C=C1CC[C@@]2(O)C3Cc4ccc(OC(=O)CCCCCCC/C=C/CCCCCCCC)c5c4[C@@]2(CCN3CC2CC2)[C@H]1O5` [Compound 15, (4aS,7aS,12bS)-3-(cyclopropylmethyl)-4a-hydroxy-7-methylene-2,3,4,4a,5,6,7,7a-octahydro-1H-4,12-methanobenzofuro[3,2-e]isoquinolin-9-yl (E)-octadec-9-enoate], the “Clinical observations, R-TA” value in [8] (48 mg/kg, Day 35, dogs D1001, D1002, D1003) is listed as “rashes subside on the leg”; in [8] (Day 7, dogs D1501, D1502, D1503, dose not given), “Swelling 8 * 4 cm”. The “% remaining at time point in minutes, 0 min” value in data set [2], in data set [3], in data set [4] and in data set [7] was 100% in each case. The “% remaining at time point in minutes, 15 min” value in data set [3] stood at 72%. The “% remaining … 480 min” value in data set [3] is 52%. For the same compound, the “% remaining … 1440 min” value in data set [3] worked out at 35%; in [7] (1440 min), 109.6%.
On to `C=C1CC[C@@]2(O)C3Cc4ccc(OC(=O)CCCCCCCCCCCCCCC)c5c4[C@@]2(CCN3CC2CC2)[C@H]1O5` [Compound 56, (4aS,7aS,12bS)-3-(cyclopropylmethyl)-4a-hydroxy-7-methylene-2,3,4,4a,5,6,7,7a-octahydro-1H-4,12-methanobenzofuro[3,2-e]isoquinolin-9-yl palmitate, reference compound], for which, in data set [9], the solubility (thermodynamic) was found to be 6.6 µg/mL (≈ 11.4 µM). Also, the “% remaining at time point in minutes, 0 min” value in [3] is on record as 100%.
For `C=C1CC[C@@]2(O)C3Cc4ccc(OC(=O)CCCCCCCCCCC)c5c4[C@@]2(CCN3CC2CC2)[C@H]1O5` [Compound 59, (4aS,7aS,12bS)-3-(cyclopropylmethyl)-4a-hydroxy-7-methylene-2,3,4,4a,5,6,7,7a-octahydro-1H-4,12-methanobenzofuro[3,2-e]isoquinolin-9-yl dodecanoate, reference compound], in data set [9] (Heating Temp. 40 °C, Obs. Temp. 40 °C), the “Equilibrium solubility Water” value is less than 1 µg/mL. In data set [3], the “% remaining at time point in minutes, 0 min” value is reported as 100%; the “% remaining at time point in minutes, 15 min” value is 5.9%; the “% remaining at time point in minutes, 120 min” value stood at 0.7%; the “% remaining … 480 min” value amounted to 0.2%. Further, in [3], the “% remaining … 1440 min” value turned out to be 0%. Besides, in [10], the “Approximate Solubility in Excipient: Cottonseed oil” value is reported as more than 414 mg/mL and the “Approximate Solubility in Excipient: Sesame oil” value is on record as more than 393.3 mg/mL.
In the case of `C=C1CC[C@@]2(O)[C@H]3Cc4ccc(O)c5c4[C@@]2(CCN3CC2CC2)[C@H]1O5.Cl` [Nalmefene HCl-IR], in data set [11], the “AUC0-inf (ng · h/mL) nalmefene” value came to 66.0 ng·h/mL and the “Terminal Half-life t1/2 (hour) nalmefene” value was 0.87 h.
Compound `C=C1CC[C@@]2(O)[C@H]3Cc4ccc(O)c5c4[C@@]2(CCN3CC2CC2)[C@H]1O5` [nalmefene, 17-cyclopropylmethyl-4,5α-epoxy-6-methylenemorphinan-3,14-diol] returned a thermodynamic solubility in data set [9] of 25 µg/mL (≈ 73.7 µM).
